These results are taken from publication PMC12399242 (Acta Pharmaceutica Sinica. B, 2025).

The test system of one data set is HIV-1 E138K. The data set is described as follows: Antiviral activity against HIV-1 mutant E138K in MT-4 cells. In kind it is cell-based. As to conditions: Human immunodeficiency virus 1, MT4, read-out: EC50 E138K.
A short description of data set [1]: Human liver microsomal stability assay. In kind it is in vitro ADME. As to the method: A mixed system of human liver microsomes (0.5 mg/mL), MgCl2 (3 mmol/L), tested compound (1.0 μmol/L), and NADPH (1.0 mmol/L) in PBS (0.1 mol/L) was incubated at 37 °C. After 0, 5, 15, 30, 45, and 60 min, aliquots were sampled respectively and then terminated by adding methanol containing internal standard. After centrifugation using a Thermo Scientific Fresco 17 microcentrifuge (4 °C, 3800 rpm, 15 min), the supernatant was removed for LC‒MS/MS analysis.
Background: Liver microsomes are vesicles of endoplasmic reticulum, rich in cytochrome P450 enzymes.

Data set [2] has as its system HIV-1 K103N + Y181C (RES056). In words: Antiviral activity against HIV-1 double mutant K103N + Y181C (RES056) in MT-4 cells. As to conditions: Human immunodeficiency virus 1, MT4, read-out: EC50 K103N + Y181C. In kind it is cell-based.
The target of the next data set is T1, CYP2C19 (Homo sapiens, UniProt P33261).
T1 construct: An incubation system of human liver microsomes (20 μL, 1.5 mg/mL); from tissue; host or cells: human liver microsomes
In words: CYP enzyme inhibition assay, CYP2C19. As to conditions: human liver microsomes. Format: in vitro ADME. On the procedure:
(§1) An incubation system of human liver microsomes (20 μL, 1.5 mg/mL), 20 μL probe substrates, and 50 μL test compound in Tris (0.1 mol/L) was pre-incubated at 37 °C for 10 min, and then initiated by adding NADPH (10 μL, 10 mmol/L). […] Finally, the sample was centrifugated to obtain the supernatant for LC‒MS/MS analysis.

For a further data set, the system named is HIV-1 L100I. The data set is described as follows: Antiviral activity against HIV-1 mutant L100I in MT-4 cells. As to conditions: Human immunodeficiency virus 1, MT4, read-out: EC50 L100I. In kind it is cell-based.
For a further data set, the target named is T2, CYP1A2 (Homo sapiens, UniProt P05177).
T2 construct: An incubation system of human liver microsomes (20 μL, 1.5 mg/mL); from tissue; host or cells: human liver microsomes
In words: CYP enzyme inhibition assay, CYP1A2. Format: in vitro ADME. As to conditions: human liver microsomes. On the procedure: as §1

T2 sequence (P05177 whole entry): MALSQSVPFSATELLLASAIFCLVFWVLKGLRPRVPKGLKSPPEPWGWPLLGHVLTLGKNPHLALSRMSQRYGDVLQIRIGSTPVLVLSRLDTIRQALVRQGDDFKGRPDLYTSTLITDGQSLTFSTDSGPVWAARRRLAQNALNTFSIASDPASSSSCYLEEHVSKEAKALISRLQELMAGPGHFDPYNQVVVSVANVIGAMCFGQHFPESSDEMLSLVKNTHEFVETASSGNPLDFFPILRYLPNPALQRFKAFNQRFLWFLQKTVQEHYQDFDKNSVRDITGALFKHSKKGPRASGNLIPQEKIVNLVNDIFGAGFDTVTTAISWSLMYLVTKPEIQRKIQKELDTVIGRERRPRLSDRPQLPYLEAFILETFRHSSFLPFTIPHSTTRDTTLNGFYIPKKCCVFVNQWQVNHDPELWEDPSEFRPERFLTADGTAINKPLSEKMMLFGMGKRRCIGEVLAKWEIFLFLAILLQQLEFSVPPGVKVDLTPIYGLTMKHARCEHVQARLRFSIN
T1 sequence (P33261 whole entry): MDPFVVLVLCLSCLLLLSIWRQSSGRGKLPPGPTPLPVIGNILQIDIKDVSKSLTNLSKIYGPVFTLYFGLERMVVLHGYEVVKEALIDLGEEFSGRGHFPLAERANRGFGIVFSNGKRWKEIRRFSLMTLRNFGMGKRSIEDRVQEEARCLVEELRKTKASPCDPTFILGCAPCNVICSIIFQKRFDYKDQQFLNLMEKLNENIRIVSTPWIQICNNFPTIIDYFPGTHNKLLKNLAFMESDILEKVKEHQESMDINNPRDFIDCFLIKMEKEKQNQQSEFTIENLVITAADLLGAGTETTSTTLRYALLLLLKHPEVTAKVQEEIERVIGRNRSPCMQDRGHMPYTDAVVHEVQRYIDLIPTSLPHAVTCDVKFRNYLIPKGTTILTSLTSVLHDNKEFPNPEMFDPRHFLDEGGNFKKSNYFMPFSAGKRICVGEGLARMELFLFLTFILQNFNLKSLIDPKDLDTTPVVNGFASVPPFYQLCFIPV

What is called EC50 is the concentration needed to bring the measured effect to its halfway point. As a reminder, the half-life is the time needed for the level to fall by half in the phase considered. Read a low half-life as fast loss. For orientation: CLint scaled means the capacity of the preparation to metabolise the compound, expressed as a volume cleared per time. A low value points to slow turnover. The term microsomal CLint denotes the rate of metabolic loss divided by the concentration. A lower microsomal CLint goes with slow turnover. One may read the IC50 as the midpoint of a concentration-inhibition curve. High values mean a need for much substance, low ones inhibition by little substance. Turning to `Cc1cc(-c2ccc(C#N)cc2)cc(C)c1Nc1nc(Nc2ccc(C#N)cc2)ncc1F` [A12, 4′-((2-((4-Cyanophenyl)amino)-5-fluoropyrimidin-4-yl)amino)-3′,5′-dimethyl-[1,1′-biphenyl]-4-carbonitrile], the EC50 in the data set with HIV-1 E138K is 6 ± 0.5 nM; in data set [2] it was 44 ± 18 nM; in the data set with HIV-1 L100I it was 3 ± 0.5 nM. In data set [1] (human liver microsomes 0.5 mg/mL, 1.0 μmol/L compound), this compound yielded a half-life at 1 μmol/L of 24.3 min. Further, the CLint scaled at 1 μmol/L in data set [1] (human liver microsomes, scaled to liver) came to 51.3 mL/min/kg. This compound displayed an intrinsic metabolic clearance (microsomal CLint) at 1 μmol/L in data set [1] (human, microsomes) of 57 µL/min/mg. Further, the IC50 on CYP2C19 is 14500 nM; at CYP1A2 it was greater than 25000 nM.
